Results: patent US9272034B2, “Treatment of conditions related to shock” (The Regents of the University of California, priority 2007, dated 2016)

Experiments:
[1] = test system: cytotoxic factors (free fatty acids) of intestinal homogenates; assay: Cell death caused by rat small intestine homogenates; type: cell-based; settings: homogenization of intestinal wall in the presence of the inhibitor
From the text: Breakdown of free fatty acid binding proteins by proteases causes release of free fatty acids to act as powerful cytotoxic mediators.

Hemorrhagic Shock [2] = assay: Long-term survival, hemorrhagic shock with intra-intestinal enzyme blockade; type: in vivo, rat; settings: ANGD 0.37 mM, 15 ml into intestinal lumen at 1 hour after hypotension; two weeks observation; P < 0.01
Experimental: (§1) A study of the long term survival after blockade of digestive enzymes provided further support to the findings. In preparation for this application the inventors carried out pilot studies in the rat with (a) hemorrhagic, (b) endotoxic and (c) cecal ligation shock, followed by an observation period for two weeks until normal cage activities were recorded in survivors. Without food restriction, in hemorrhagic shock the mean blood pressure was reduced for two hours to 35 mmHg followed by return of all blood volume but no further resuscitation. The digestive enzymes were blocked at 1 hour after hypotension by direct infusion of ANGD (0.37 mM, 15 ml) into the intestinal lumen after a temporary exposure via a midline incision. In endotoxic shock, the rats received gram-negative endotoxin (5 mg/kg, i.v.); the digestive enzymes were blocked in the same way at 1 hour after endotoxin administration. No other agent was administered. In cecal ligation shock both the digestive enzymes in the lumen of the intestine as well as inside the peritoneum were blocked with ANGD. […] In contrast to untreated controls, all treated survivors returned after anesthesia within hours to normal activity (walking, climbing, grooming, drinking, eating, bowel movements) and within 3 days to normal weight gain. […]

Endotoxic Shock = assay: Long-term survival, endotoxic shock with intra-intestinal enzyme blockade; type: in vivo, rat; settings: endotoxin 5 mg/kg i.v.; blockade at 1 hour; two weeks observation; P < 0.004
Experimental: as §1

[3] = test system: plasma enzymatic activity (cleavage of the extracellular domain of the insulin receptor); assay: Shock plasma protease activity cleaving the insulin receptor extracellular domain on donor cells; type: cell-based; settings: plasma of rats in hemorrhagic shock collected at 4 hours; results not shown
Experimental: It was further shown that plasma of shock rats has protease activity and causes cleavage of the extracellular domain of the insulin receptor, E-cadherin, and CAT-1. In all forms of shock there is consistently proteolytic activity in plasma. Therefore the inventors investigated the ability of central venous plasma of rats in hemorrhagic shock (collected at 4 hours) to cleave the extracellular domain of the insulin receptor a by using an antibody against the extracellular binding domain of insulin combined with membrane receptor density measurements. Exposure of normal donor cells to plasma from shock rats, but not to plasma of control rats, causes extensive cleavage of the insulin binding domain. Furthermore, this cleavage causes also a reduction of the glucose transport into the cell cytoplasm. […] There is also a significant cleavage of the extracellular domain of the tight junction protein E-cadherin in intestinal epithelium and CAT-1 in leukocytes.

hemorrhagic shock [4] = assay: Survival of lab rodents in hemorrhagic shock given basic shock care with or without inhibitor; type: in vivo; settings: 10 of 19 rodents treated; one of nine untreated survived
From the text: The researchers then began animal studies. The present invention is based on the latest research using rodent models of human hemorrhagic shock. Here it has been discovered that the sudden lowering of blood pressure that occurs in people suffering from […] can provoke the body's digestive enzymes to break down the body's own intestinal tissue as if it were food. Such enzymes' abnormal actions may be defined as “auto-digestion.” Auto-digestion is dangerous because not only does it injure healthy tissue but also contributes to multi-organ failure, which can be fatal.
The healthy cells of the animals' intestinal tissue react to auto-digestion by releasing a slew of substances that can be toxic to the heart and other body organs. These substances, termed cytotoxic mediators, can reach these body organs via the blood stream. In their latest studies, shock was induced in 19 lab rodents, all of which were then treated with therapies that mirror the emergency room care given to many human patients who suffer shock, which typically occurs when blood flow to the heart, lungs and other body organs is slowed as a result of trauma, dehydration, heart attack or stroke.
A total of 10 of the 19 lab rodents in shock were also treated with the experimental digestive enzyme inhibitor called ANGD. […] However, only one of the nine “untreated” animals in shock survived. […]

Cecal Lig. Shock = assay: Long-term survival, cecal ligation shock with blockade in intestinal lumen and peritoneum; type: in vivo, rat; settings: for survival rate (survivors/treated): alternative serine protease inhibitors
Experimental: (§2) A study of the long term survival after blockade of digestive enzymes provided further support to the findings. In preparation for this application the inventors carried out pilot studies in the rat with (a) hemorrhagic, (b) endotoxic and (c) cecal ligation shock, followed by an observation period for two weeks until normal cage activities were recorded in survivors. Without food restriction, in hemorrhagic shock the mean blood pressure was reduced for two hours to 35 mmHg followed by return of all blood volume but no further resuscitation. The digestive enzymes were blocked at 1 hour after hypotension by direct infusion of ANGD (0.37 mM, 15 ml) into the intestinal lumen after a temporary exposure via a midline incision. In endotoxic shock, the rats received gram-negative endotoxin (5 mg/kg, i.v.); the digestive enzymes were blocked in the same way at 1 hour after endotoxin administration. No other agent was administered. In cecal ligation shock both the digestive enzymes in the lumen of the intestine as well as inside the peritoneum were blocked with ANGD. […] In contrast to untreated controls, all treated survivors returned after anesthesia within hours to normal activity (walking, climbing, grooming, drinking, eating, bowel movements) and within 3 days to normal weight gain. Furthermore, treatment with alternative serine protease inhibitors (CYCLOKAPRON, tranexamic acid; TRASYLOL, aprotinin) in cecal ligation shock gave significant survival rates (5/5 rats, P<0.0079; 4/5 rats, P<0.02, respectively).

[5] = test system: hemorrhagic, endotoxic and cecal ligation shock; assay: Long-term survival pilot studies, observations stated for all three shock models together; type: in vivo, rat
Experimental: as §2

[6] = test system: pancreatic digestive enzymes; assay: Enzyme inhibitors administered directly into the circulation (i.v., i.a., i.m.) in shock; type: in vivo; settings: administered directly into the circulation (i.v., i.a., i.m.) instead of the lumen of the intestine
Experimental: From a mechanistic point of view, an important feature is the fact that the significant protection rendered by the inhibition of pancreatic digestive enzymes is only provided if the enzymes are blocked inside the lumen of the intestine. […] This observation supports the hypothesis that digestive enzymes in the lumen of the intestine—where they are fully activated and in high concentrations—are the major enzymes in acute intestinal ischemia. They produce inflammatory mediators that are carried towards the central circulation via the portal venous system, but also via the intestinal lymphatics.

hemorrhagic shock [7] = assay: Enteroclysis with digestive protease blockade in porcine hemorrhagic shock; type: in vivo, pigs
Experimental: The inventors examined the utility of intestinal lavage in a porcine model of hemorrhagic shock. An objective of this study was to determine the effect of digestive protease blockade in the lumen of the intestine during hemorrhagic shock. The animals (16 pigs) were subjected to a shock that mimics clinical events. Pigs were bled 30 ml/kg over 30 minutes and maintained at a mean arterial pressure of 30 mmHg for 60 minutes and shed blood was then used to maintain a pressure of 45 mmHg for three hours.

septic shock = settings: FDA approved treatment; more recent trials could not confirm the effectiveness; cited from earlier work
[8] = test system: intestinal ischemia-induced shock; assay: Intra-intestinal pancreatic protease inhibition in intestinal ischemia and reperfusion (SMAO); type: in vivo
From the text: These experiments were designed to examine whether inflammatory mediators generated in the intestine by digestive enzymes are released early into the circulation and may contribute to the severe systemic inflammatory response syndrome during shock, a condition that involves the microcirculation in peripheral organs. Intestinal ischemia and reperfusion-induced hypotension upon reperfusion was accompanied by a significant increase in the level of neutrophil activating factors in the intestine and plasma. During reperfusion a significant increase in leukocyte-endothelium interactions in post-capillary venules and parenchymal cell death are observed in the cremaster muscle in controls after SMAO. […] In addition, ischemia-induced intestinal mucosal injury is attenuated with intestinal pancreatic protease inhibition.

[9] = test system: superior mesenteric artery occlusion (SMAO)-induced shock; assay: Delayed intestinal lavage with protease inhibitor during reperfusion after SMAO; type: in vivo, Male Wistar rats
From the text: In one series of experiments, the inventors discovered that delayed inhibition of digestive enzymes in the lumen of the intestine reduces inflammatory markers after shock. As a clinically relevant situation, the inventors examined the effectiveness of a delayed intestinal protease inhibition during reperfusion after SMAO. […] Intestinal ischemia-induced endotoxemia was prevented by digestive enzyme inhibition.
In summary, delayed intestinal protease inhibition serves to improve experimental SMAO-induced shock by reducing intestinal injury, the level of cell activation in plasma and in the microcirculation, and by restoring the blood pressure.

[10] = test system: septic shock with a lethal dose of endotoxin; assay: Intra-luminal lavage after lethal dose of endotoxin (septic shock); type: in vivo, rat; settings: endotoxin 4 mg/kg i.v.
From the text: Sepsis is accompanied by severe inflammation whose mechanism remains uncertain. The inventors examined the possibility that pancreatic digestive enzymes may also be involved in inflammation in an experimental form of septic shock with a lethal dose of endotoxin in the rat. Immediately after intravenous endotoxin administration, the small intestine was subjected to intra-luminal lavage with and without an inhibitor of pancreatic digestive proteases (FOY, gabexate mesilate). After endotoxin administration (4 mg/kg, gram-negative), control rats developed hypotension, tachycardia, hyperventilation and leukopenia. The intestine and plasma contained mediators that activated leukocytes. The leukocyte-endothelial interaction within the cremaster muscle microcirculation was enhanced. […] These experiments indicate that inflammatory mediators derived from the intestine by digestive proteases may be involved in the prolonged inflammatory response and may sustain symptoms of sepsis after an endotoxin challenge. A bolus administration of endotoxin causes a transient inflammation response and elevated intestinal permeability. But the sustained inflammation that leads to multi-organ failure in this situation is caused by auto-digestion due to escape of pancreatic digestive enzymes from the lumen of the intestine due to the elevated mucosal permeability.

[11] = blockade in lumen of intestine and peritoneum, two weeks observation, P < 0.001
[12] = 100 ml/kg of 0.37 mM in GOLYTELY via duodenal catheter
[13] = FOY 0.37 mM, delayed lavage at 40 min after reperfusion

CCCCCCCCCCC[C@@H](C[C@@H]1OC(=O)[C@H]1CCCCCC)OC(=O)[C@H](CC(C)C)NC=O [orlistat]
cell death after protease digestion [1]: prevented cell death

N=C(N)c1ccc2cc(OC(=O)c3ccc(N=C(N)N)cc3)ccc2c1 [ANGD, 6-amidino-2-naphthyl p-guanidobenzoate dimethane-sulfate]
Non-Survivor (Hemorrhagic Shock [2]): 2 number of rats | Survivor (Hemorrhagic Shock [2]): 10 number of rats | Non-Survivor (Endotoxic Shock): 1 number of rats | Survivor (Endotoxic Shock): 10 number of rats | block of plasma enzymatic activity [3]: more than 50% | survival (survivors of treated animals) (hemorrhagic shock [4]): Eight of the ten | Non-Survivor (Cecal Lig. Shock; [11]): 1 number of rats | Survivor (Cecal Lig. Shock; [11]): 9 number of rats | survival rate versus untreated controls ([5]; in each shock model): significantly enhanced survival rate | return of treated survivors to normal weight gain ([5]; rat, in vivo): ≤ 3 days | return of treated survivors to normal activity after anesthesia ([5]; walking, climbing, grooming, drinking, eating, bowel movements): within hours | protection against inflammation in shock [6]: less, and in some cases no protection | protease activity in the intestinal lumen and in plasma throughout the experiment (hemorrhagic shock [7]; [12]): persistent suppression | protein and protease levels in the duodenum during enteroclysis (hemorrhagic shock [7]; [12]): significant reductions | leukocyte infiltration into the lung (hemorrhagic shock [7]; p=0.04): lower in treated than control animals | liver and small intestine injury (hemorrhagic shock [7]; pig, in vivo): less injury | transfusion requirement of shed blood (hemorrhagic shock [7]; versus 30±0.43 ml/kg in controls, p=0.002): 18.1 ± 4.5 mL/kg | level of neutrophil activation after resuscitation (hemorrhagic shock [7]; versus 46.9±4.5% in controls, p=0.0002): 31.1±3.3%

NC[C@H]1CC[C@H](C(=O)O)CC1 [CYCLOKAPRON, tranexamic acid]
survival rate (survivors/treated) (Cecal Lig. Shock): 5/5

drotrecogin alfa (activated) [XIGRIS]
survival benefit (septic shock): minor but confirmed survival benefit

CCOC(=O)c1ccc(OC(=O)CCCCCN=C(N)N)cc1.CS(=O)(=O)O [FOY, gabexate mesilate]
leukocyte-endothelial interactions (rolling and firm adhesion to the endothelium) ([8]; cremaster muscle): almost completely abolished | cell death (propidium iodine labeling) in the cremaster muscle ([8]; in vivo): almost completely abolished | ischemia-induced intestinal mucosal injury ([8]; in vivo): attenuated | blood pressure ([8]; intra-intestinal, 0.37 mM): stable blood pressure throughout the experiment | cell activation ([8]; intra-intestinal, 0.37 mM): almost completely abolished | formation of intestine-derived leukocyte activation factors [9, 13]: decreased formation | intestinal injury [9, 13]: decreased | blood pressure ([9]; FOY 0.37 mM, delayed lavage at 40 min after reperfusion, SMAO 100 min): highly significant restoration of the initial blood pressure before shock | leukocytes adhesion in post-capillary venules ([9]; cremaster muscle microcirculation): lower leukocytes adhesion | cell death in the cremaster muscle microcirculation ([9]; rat, in vivo): reduced cell death | intestinal ischemia-induced endotoxemia ([9]; rat, in vivo): prevented | cell injury in peripheral skeletal muscle microcirculation [10]: reduces | indices of inflammation in plasma [10]: reduces all indices | hemodynamic parameters ([10]; intra-luminal lavage immediately after): significantly improved

aprotinin [TRASYLOL]
survival rate (survivors/treated) (Cecal Lig. Shock): 4/5 | protection against inflammation in shock [6]: less, and in some cases no protection
